Entries after “also recorded” stand apart in the source; their conditions may differ.
Columns and labels:
MGMT^−/− Lin^− BM = experiment: in vitro erythroid micronucleus assay, MGMT−/− Lin− bone marrow; conditions: introduced 10 h, 23 h or 30 h after seeding, harvest 72 h
bone marrow = conditions: dose concentrations up to 20 μM, in vitro dosing (Glassner 1999); cited from earlier work
[1] = bolus injection of 25 mg/kg, cited from earlier work
[2] = tested on: Lin^− fraction of C57BL/6J (mouse) BM; experiment: in vitro erythroid micronucleus assay, erythropoietic culture of wild-type Lin− bone marrow
[3] = tested on: bone marrow PCEs (reticulocytes); conditions: mouse; cited from earlier work

Row | SMILES | MN frequency, MGMT−/− vs wild-type cultures (MGMT^−/− Lin^− BM; 10 μM and 20 μM doses) | cell survival (growth inhibition), MGMT−/− vs wild-type cultures (MGMT^−/− Lin^− BM) | cell survival as measured by colony assay (bone marrow) [%] | peak plasma concentration ([1]; after 1 minute (Meulemans 1989)) [mM] | plasma level ([1]; within the next 15 minutes (Meulemans 1989)) | MN frequency in the PCE population (MN-PCE frequency) ([2]; 20 μM introduced 7 hours after seeding, harvest after 72 hours, vs vehicle control) | cell killing and MN formation ([2]; MGMT+/+ BM cultures treated 4 h after culture initiation (data not shown)) | result in the in vivo MN assay [3]
1 | O=NN(CCCl)C(=O)NCCCl [BCNU, 1,3-bis (2-chloroethyl) -1-nitrosourea] | significant increases in MN frequency; also recorded: more sensitive to growth-inhibition and MN-formation | decreased cell survival | ~100 | ~0.4 | approximately 40 μM | provides a clear signal of genotoxicity; also recorded: significantly different than those exposed to vehicle control alone; also recorded: an increase in the frequency of MN-PCEs | cell-killing dominated and very little MN formation was observed | 
2 | COS(C)(=O)=O [MMS, methylmethane sulfonate] |  |  |  |  |  |  |  | test positive

Source: patent publication US20070087364A1, “In vitro erythroid micronucleus assay for genotoxicity” (Massachusetts Institute of Technology, priority 2005, published 2007)
